The values that follow come from paper PMC7175203, “PIRT the TRP Channel Regulating Protein Binds Calmodulin and Cholesterol-Like Ligands” (Biomolecules, 2020).

Experiment [1] concerns the target T1, PIRT (Phosphoinositide-interacting regulator of TRP) (Homo sapiens, UniProt P0C851). Kind of experiment: microscale thermophoresis. Type of experiment: binding.
For experiment [2], the target named is T1, PIRT (Phosphoinositide-interacting regulator of TRP). Kind of experiment: microscale thermophoresis; […]-PIRT HSQC NMR chemical shift perturbation. Type of experiment: binding. For orientation: MST reads how a fluorescent partner responds to local heating, with and without ligand.
For experiment [3], the target named is Calmodulin (holo) (UniProt P0DP23). Kind of experiment: tryptophan fluorescence. The note with it: cited from earlier work.
For experiment [4], the target named is T2, Human PIRT (phosphoinositide-interacting regulator of TRP), fluorescently labeled for MST (human, UniProt P0C851 1-137, fluorescently labeled (dye and site not stated; by the protocol of ref. 24)).
T2 construct: Measured in 0.1% DPC micelles; The His tag is named only for the pull-down; also called MST labeled PIRT; source: purified
Kind of experiment: MST; 200 nM fluorescently labeled PIRT, peptide hormone titrated; 0.1% DPC (w/v), 50 mM HEPES, pH 7.0; room temperature; triplicate. The note with it: both partners purified.

Bridge positions count the residues as written; N and C are the ends. Ends that are not written are not given here.

T1 sequence (P0C851 whole entry): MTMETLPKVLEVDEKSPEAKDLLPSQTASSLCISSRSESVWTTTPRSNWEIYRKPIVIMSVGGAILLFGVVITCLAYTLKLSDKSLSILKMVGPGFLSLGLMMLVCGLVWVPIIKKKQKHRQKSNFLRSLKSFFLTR
T2 sequence (P0C851 whole entry): as above

Usually Kd stands for the free concentration of one partner at which half of the binding sites on the other are occupied at equilibrium, for simple one-to-one binding. For the molecule `C=C1CC[C@H](O)C/C1=C/C=C1\CCC[C@]2(C)[C@@H]([C@H](C)CCCC(C)C)CC[C@@H]12` [Cholecalciferol], the Kd in experiment [1] was 2100 µM.

Turning to `C[C@]12CCC(=O)C=C1CC[C@@H]1[C@@H]2[C@@H](O)C[C@@]2(C)[C@H]1CC[C@]2(O)C(=O)CO` [Cortisol], the Kd in experiment [1] (read-out: Kd) came out at 790 µM.

As for `CC(C)CCC[C@@H](C)[C@H]1CC[C@H]2[C@@H]3CC=C4C[C@@H](OC(=O)CCC(=O)O)CC[C@]4(C)[C@H]3CC[C@]12C` [cholesteryl-hemisuccinate], the Kd in experiment [1] (read-out: Kd) was found to be 103 µM.

Take `C[C@]12CC[C@@H]3c4ccc(O)cc4CC[C@H]3[C@@H]1CC[C@@H]2O` [β-Estradiol]: the dissociation constant Kd in experiment [2] turned out to be 800 µM.

In the case of “TRPV1 distal C-terminus (from UniProt O35433)”, in experiment [3], the equilibrium dissociation constant (Kd) was 0.054 µM.

B1: Oxytocin (peptide, UniProt P01178 20-28, looked up)
peptide: CYIQNCPLG-NH2
modifications: disulfide 1-6
notes: oxytocin, peptide hormone, cyclic nonapeptide cut from the oxytocin-neurophysin 1 precursor
In experiment [4], B1 yielded a Kd of 7 µM.
